Here are results for 32 compounds from US4150135A, “Substituted 4a-phenyl-N-phenylalkyl-cis-decahydroisoquinolines” (priority 1977, dated 1979).

Where a name gives a salt, the structure may show the parent alone.

The first experiment concerns mice (phenylquinone-induced stretching or writhing syndrome). As to the kind of experiment: standard phenylquinone writhing test (PQW), oral analgesia in mice. The format is in vivo, female white mice. The conditions noted are these: Mus musculus, po, read-out: PQW ED50. On the procedure:
A standard procedure for detecting and comparing the analgesic activity of compounds in this series for which there is good correlation with human efficacy is the standard phenylquinone writhing test (PQW) modified from Siegmund, et al., Proc. Soc. Exp. Biol. Med. 95, 729 (1957). A test compound suspended in 1% methylcellulose was given orally to fasted (17-21 hours) female white mice, 5-20 animals per dose in a double blind test. Aqueous (0.01% phenyl-p-benzoquinone) phenylquinone was injected intraperitoneally at 23 or 30 minutes later using 0.20 ml per mouse. […] The effective analgesic dose for 50% of the mice (ED 50) was calculated by the moving average method of Weil, Biometrics 8, 249 (1952).
On the technique in general: In writhing tests, fewer writhes than in controls are read as antinociception.
As usually defined, the ED50 is the midpoint of the dose-response relation. As to `CN1CC[C@]23c4c5ccc(O)c4O[C@H]2[C@@H](O)C=C[C@H]3[C@H]1C5` [Morphine H2 SO4, reference compound], the ED50 was 1.6 mg/kg.

The experiment is the same for the next values; noted with them: Mus musculus, po; mice; phenylquinone i.p.; effective analgesic dose for 50% of the mice (Table II); read-out: PQW ED50.
In the case of `COc1cccc(C23CCCCC2CN(CC2CC2)CC3)c1` (stereo not drawn), the median effective dose (ED50) was 14 mg/kg.

Consider `Oc1cccc(C23CCCCC2CN(CC2CC2)CC3)c1` (stereo not drawn), for which the ED50 worked out at 20 mg/kg.

In the case of `COc1cccc(C23CCCCC2CN(CC2CCC2)CC3)c1` (stereo not drawn), the median effective dose (ED50) is 18.5 mg/kg.

As for `Oc1cccc(C23CCCCC2CN(CC2CCC2)CC3)c1` (stereo not drawn), the ED50 turned out to be 20 mg/kg.

Regarding `COc1cccc(C23CCCCC2CN(CCc2ccccc2)CC3)c1` (stereo not drawn), the ED50 is 14.5 mg/kg.

As for `Oc1cccc(C23CCCCC2CN(CCc2ccccc2)CC3)c1` (stereo not drawn), the ED50 came to 21 mg/kg.

`COc1cccc(C23CCCCC2CN(CCc2ccc(F)cc2)CC3)c1` (stereo not drawn): the median effective dose (ED50) was determined as 33 mg/kg.

In the case of `Oc1cccc(C23CCCCC2CN(CCc2ccc(Cl)cc2)CC3)c1` (stereo not drawn), the ED50 is 28 mg/kg.

Take `COc1cccc(C23CCCCC2CN(CCc2ccc(Cl)cc2)CC3)c1` (stereo not drawn): the median effective dose (ED50) was 16 mg/kg.

On to `Cc1ccc(CCN2CCC3(c4cccc(O)c4)CCCCC3C2)cc1` (stereo not drawn), for which the median effective dose (ED50) is 9.7 mg/kg.

Turning to `COc1cccc(C23CCCCC2CN(CCc2ccc(C)cc2)CC3)c1` (stereo not drawn), the ED50 was found to be 11 mg/kg.

With `COc1cccc(C23CCCCC2CN(CCc2ccc(N(C)C)cc2)CC3)c1` (stereo not drawn), the ED50 amounted to 15.1 mg/kg.

In the case of `COc1cccc(C23CCCCC2CN(CCc2ccco2)CC3)c1` (stereo not drawn), the median effective dose (ED50) was 25 mg/kg.

`Oc1cccc(C23CCCCC2CN(CCc2cccs2)CC3)c1` (stereo not drawn): the ED50 amounted to 24 mg/kg.

Regarding `COc1cccc(C23CCCCC2CN(CCc2cccs2)CC3)c1` (stereo not drawn), the ED50 turned out to be 27 mg/kg.

Regarding `CC(=O)Oc1cccc(C23CCCCC2CN(CCc2cccs2)CC3)c1` (stereo not drawn), the ED50 is 27 mg/kg.

As to `CC(C)=CCN1CC[C@]2(c3cccc(O)c3)CCCC[C@@H]2C1` (relative stereo) [CH2CHC(CH3)2 m-OH, N-(3,3-Dimethylallyl)-4a-(m-hydroxyphenyl)-cis-decahydroisoquinoline], the 50% effective dose (ED50) amounted to 40 mg/kg.

Regarding `C=CCN1CC[C@]2(c3cccc(O)c3)CCCC[C@@H]2C1` (relative stereo) [CH2CHCH2 m-OH, N-Allyl-4a-(m-hydroxyphenyl)-cis-decahydroisoquinoline], the ED50 amounted to 43 mg/kg.

Regarding `CN1CC[C@]2(c3ccc(F)cc3)CCCC[C@@H]2C1` (relative stereo) [CH3 p-F, N-methyl-4a-(p-fluorophenyl)-cis-decahydroisoquinoline], the 50% effective dose (ED50) amounted to 26 mg/kg.

In the case of `CC(=O)Oc1ccccc1C(=O)O` [Aspirin, reference compound], the ED50 came out at 109 mg/kg.

`CCCCCN1CCC2(c3cccc(OC)c3)CCCCC2C1` (stereo not drawn) [C5 H11 m-OCH3]: the ED50 came to 20 mg/kg.

As to `CN1CCC2(c3cccc(O)c3)CCCCC2C1` (stereo not drawn) [CH3 m-OH], the 50% effective dose (ED50) is 2.9 mg/kg.

For the compound `COc1ccc2c3c1O[C@H]1[C@@H](O)C=C[C@H]4[C@@H](C2)N(C)CC[C@@]341` [Codeine H3 PO4, reference compound], the ED50 came out at 8 mg/kg.

Take `Oc1ccc2c3c1O[C@H]1[C@@H](O)CC[C@@]4(O)[C@@H](C2)N(CC2CCC2)CC[C@]314` [Nalbuphine HCl, reference compound]: the ED50 is 8.4 mg/kg.

Regarding `CC(C)=CCN1CCC2(C)c3cc(O)ccc3CC1C2C.Cl` (stereo not drawn) [Pentazocine HCl, reference compound], the median effective dose (ED50) was 57 mg/kg.

Staying with this experiment, now noted: Mus musculus, po; mouse (Table III, additional compounds); read-out: Mouse ED50 Analgesia (PQW)-Oral.
Consider `COc1cccc(C23CCN(CCc4ccc(C)cc4)CC2CCC(C)C3)c1` (stereo not drawn) [Example 20-G, N-(p-Tolylethyl)-4a-m-methoxyphenyl-6β-methyl-cis-decahydroisoquinoline], for which the ED50 was determined as 28 mg/kg.

For the compound `CC1CCC2CN(CC3CCC3)CCC2(c2cccc(O)c2)C1` (stereo not drawn) [Example 22-C, N-Cyclobutylmethyl-4a-m-hydroxyphenyl-6β-methyl-cis-decahydroisoquinoline], the ED50 is 54 mg/kg.

For `COc1cccc(C23CCN(C)CC2CCC(C)C3)c1` (stereo not drawn) [Example 23, N-Methyl-4a-m-methoxyphenyl-6β-methyl-cis-decahydroisoquinoline], the 50% effective dose (ED50) is 3.5 mg/kg.

On to `CC1CCC2CN(CCc3ccccc3)CCC2(c2cccc(O)c2)C1` (stereo not drawn) [Example 27-C, N-Phenethyl-4a-m-hydroxyphenyl-6β-methyl-cis-decahydroisoquinoline], for which the ED50 is 10.8 mg/kg.

For `COc1cccc(C23CCN(Cc4ccco4)CC2CCC(C)C3)c1` (stereo not drawn) [Example 28, N-(2-Furylmethyl)-4a-m-methoxyphenyl-6β-methyl-cis-decahydroisoquinoline], the median effective dose (ED50) was 61 mg/kg.

Still in this experiment, the particulars now being: oral; mouse (Table III, additional compounds).
For `COc1cccc(C23CCN(CCc4ccc(C)cc4)CC2CCC(C)C3)c1` (stereo not drawn) [Example 20-G, N-(p-Tolylethyl)-4a-m-methoxyphenyl-6β-methyl-cis-decahydroisoquinoline], the “Mouse ED50 Analgesia (PQW)-Oral” value worked out at 22 mg/kg.

System in a further experiment: not given
Test: not given
The conditions noted are these: J. Am. Chem. Soc. 72, 712 (1950); cited from earlier work.
`CN1CC[C@]2(c3ccccc3)CCCC[C@@H]2C1` (relative stereo) [N-Methyl-4a-phenyl-cis-decahydroisoquinoline]: the analgesic activity entry was “low analgesic activity”.
